Key:
[1] = tested on: transgenic potato plants (CGS+); test: Resistance to ethionine in CGS+ transgenic potato plants (growth on maintenance medium with ethionine); format: in vivo, Russet Burbank potato
Experimental: (§1) Inaba, et al. used 100 μM ethionine, the toxic analogue of methionine to select Arabidopsis thaliana mutants that overaccumulated methionine. We tested the effects of ethionine on the growth of transgenic potato plants by incorporating ethionine into the maintenance medium. Several concentrations of ethionine, 10, 25, 50, 100, 200, 300 μM were tested initially using wild-type potato plants.

wild-type potato plants = test: Effect of ethionine in the maintenance medium on growth of wild-type potato plants; format: in vivo, Russet Burbank potato
Experimental: as §1

[2] = ethionine 10 μM in maintenance medium

Q: Which “growth of transgenic potato plants” value [1, 2] does the source give for `CCSCC[C@H](N)C(=O)O` [ethionine] here?
A: The value was “continued to grow”.

Q: What about the “root initiation of transgenic potato plants” value [1, 2] of the same molecule?
A: Its value is “all transgenic plants initiated roots in three days”.

Q: And the “growth of transgenic potato plants” value ([1]; ethionine 25 and 50 μM in maintenance medium)?
A: Its value is “only CGS4 and CGS8 had limited growth of roots”.

Q: What about the “growth of wild-type potato plants” value (wild-type potato plants; [2]) of the same molecule?
A: Its value is “growth of wild-type plants were inhibited”.

Q: What about the “growth of wild-type potato plants” value (wild-type potato plants; ethionine 50 μM and higher (10, 25, 50, 100, 200, 300 μM tested) in maintenance medium) of the same molecule?
A: The value was “total inhibition of growth”.
